Reference: publication PMC9714824, “Hexapeptides from mammalian inhibitory hormone hunt activate and inactivate nematode reproduction” (PLOS ONE, 2022)

Key:
[1] = test system: hDPSC (Human Dental Pulp Derived Mesenchymal-Like Stem/Progenitor Cells); set-up: method as in earlier work; conditions: EPL001 0.15µM or EPL140 15µM, three days; cited from earlier work
[2] = test system: MCF 7 human breast cancer cells; conditions: in words; EPL120 over 72h, dose range 0.04 nM– 4 μM; cited from earlier work
[3] = test system: compensatory renal growth; conditions: in words; cited from earlier work
Protocol: The 14-residue N-terminal Edman sequence EPL001 was determined in the context of a polypeptide candidate of m/z ~7,500 (‘Candidate 7500’) in MALDI-TOF mass spectrometry (MS) and a corresponding band in SDS polyacrylamide gel electrophoresis, implying a chain of ~70 aa for the native molecule. In spite of comprising only 20% of Candidate 7500, EPL001 surpris ...

[4] = test system: DU145 cells; assay: MTS viable cell assay, DU145 (Epistem); assay type: cell-based, human; conditions: DU145; 150 μM (highest concentration); 72h
Outline: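 DU145 or LNCaP cells, 3,000/well in RPMI with 10% FCS, grown 24 h, then peptide added: multiple dose levels, repeated after 24 h, for DU145; single dose level, once, for LNCaP; vehicle 1% PBS. MTS absorbance 492 nm at 72 h after first dose, background-subtracted OD mean±SEM; ANOVA with Dunnett's test.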

[5] = test system: LNCaP cells; assay: MTS viable cell assay, LNCaP (Epistem); assay type: cell-based, human; conditions: over 72h, single dose level
Protocol: Further assays on human prostate cancer cells were conducted at a contract research organisation (Epistem, Manchester, UK). LNCaP or DU145 cells seeded at 3,000 cells/well across a 96-well plate were cultured in RPMI (phenol red free), 10% FCS, 1% sodium pyruvate, Pen/strep and L-glutamine for 24h before exposure to peptides, at a single dose level in the case of LNCaPs or multiple dose levels in the case of DU145s. (For dose levels see Results.) Controls received vehicle (1% PBS). For the DU145s peptide administration was repeated after 24h. 72h after the first administration (DU145s) or only administration (LNCaP) total viable cell numbers were measured colorimetrically (MTS) using a CellTiter 96 AQueous One Solution Cell Proliferation Assay (Promega, Southampton, UK), following manufacturer’s instructions. Briefly, the media on the plates was replaced with the CellTiter reagent diluted 1:5 in DMEM. The plates were returned to the incubator for 3 hours before reading absorbance at 492 nm on a FLUORstar OPTIMA (BMG Labtech). CellTiter data are the absorbance minus background values (CellTiter plus DMEM), expressed as (OD mean +/− SEM). Statistical analysis was by ANOVA, Dunnett’s multiple comparisons test.

[6] = test system: hMSCs; set-up: method as in earlier work; conditions: EPL001 0.15µM or EPL140 15µM, three days; cited from earlier work
[7] = test system: PNT2 cells; assay: MTS colorimetric viable cell assay, PNT2; assay type: cell-based, human; conditions: 30 μM, 27h, 492 nm, triplicate
Outline: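 Cells seeded at 8,000/well, given peptides (14mer to 6mer) at 30 μM final at the outset, triplicate, buffer controls; viable cells by MTS absorbance at 492 nm after 27 h growth. Data as OD mean ± SEM, two-tailed t-test; a 14mer time course on PC3 read at 24 and 48 h.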

MKPLTGKVKEFNNI [EPL001, 14mer master test peptide …; ovine provenance]
Bmal1 expression [1]: ↑
OCN expression [1]: ↓↓
PPARγ expression [1]: ↓↓
Per2 expression [1]: ↑
Rev-ErbA expression [1]: ↓
Sox9 expression [1]: (↓)
Inhibition of IGF-1 stimulated growth in MCF-7 cell numbers [2]: inhibits the proliferation
Effect on rat compensatory renal growth [3]: anti-organotrophic
Test mean OD vs control mean [4]: −16.5%
Reduction in test mean OD versus the vehicle control mean [5]: -17.0%
Bmal1 expression [6]: ↑↑
OCN expression [6]: ↓
PPARγ expression [6]: ↓
Per2 expression [6]: ↓
Sox9 expression [6]: ↓
Difference in percentage terms between control and test OD means [7]: +3.1%
